In patent publication EP1854806A1, “Thioglycosides as pharmaceutically active agents” (MPG Max-Planck-Gesellschaft zur Förderung der …, priority 2006, dated 2007):
Like-named read-outs stand apart in the source and are kept apart here.

Experiments:
Type in all cases: cell-based
human SGLT2 [1] = molecular target: T1, human SGLT2 (Homo sapiens, UniProt P31639); experiment: SGLT activity (membrane translocation) by fluorescence resonance energy transfer (FRET); settings: for transport through hSGLT2 (FRET): result in words; for fluorescence ratios: hSGLT2 in CHO cells, 10 µm thioglucoside, normalized to non-transfected CHO cells, ratio higher than 1 = transported, n=16
T1 construct: expressed in transfected cells; host or cells: CHO (Chinese hamster ovary) cells, stably transfected
T1 sequence (P31639 1-672): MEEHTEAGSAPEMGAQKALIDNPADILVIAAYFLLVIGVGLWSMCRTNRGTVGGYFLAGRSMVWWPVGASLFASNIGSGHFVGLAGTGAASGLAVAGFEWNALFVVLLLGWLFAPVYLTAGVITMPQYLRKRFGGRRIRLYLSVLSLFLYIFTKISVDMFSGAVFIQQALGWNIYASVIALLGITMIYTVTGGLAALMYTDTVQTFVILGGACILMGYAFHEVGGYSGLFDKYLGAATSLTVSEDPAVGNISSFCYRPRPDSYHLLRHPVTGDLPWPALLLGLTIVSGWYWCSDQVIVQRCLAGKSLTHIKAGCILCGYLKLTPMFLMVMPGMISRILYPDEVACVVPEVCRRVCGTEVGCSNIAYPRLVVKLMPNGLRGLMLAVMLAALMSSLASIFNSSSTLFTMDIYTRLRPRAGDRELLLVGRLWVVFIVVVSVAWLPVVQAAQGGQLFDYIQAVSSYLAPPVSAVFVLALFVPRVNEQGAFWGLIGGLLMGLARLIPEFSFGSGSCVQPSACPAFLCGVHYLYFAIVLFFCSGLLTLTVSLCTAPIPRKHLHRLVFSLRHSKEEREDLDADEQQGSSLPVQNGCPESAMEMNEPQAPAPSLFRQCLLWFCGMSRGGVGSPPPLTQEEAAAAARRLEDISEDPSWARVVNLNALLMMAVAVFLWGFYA
Experimental: (§1) Stable transfected Chinese hamster ovary (CHO) cells that express human SGLT1 or human SGLT2 were seeded at a concentration of […] and maintained in culture for 2 days to allow the cells to form a confluent monolayer culture. For transport studies cells were seeded in 96-well microtiter scintiplates (PerkinElmer, Weisbaden, German). For fluorescence resonance energy transfer (FRET) analysis cells were seeded in flat-bottom, poly-D-lysine black-wall, clear bottom, 96-well plates (Becton Dickinson; Heidelberg, Germany).
(§2) SGLT activity, as indicated by membrane translocation, was assessed using fluorescence resonance energy transfer (FRET). Cells were incubated for 48 hours ar 37°C in a 5% CO2 atmosphere in growth medium. Cells were washed with 0.2 ml Dulbecco's phosphate-buffered saline (Invitrogen, Karlsruhe, Germany) and then incubated with 0.1 ml of a solution containing 5 µm CC2-DMPE and 0.02% pluronic acid in PBS. After incubation in the dark for 30 min at 25°C, cells were washed twice with 0.2 ml PBS. Afterwards, cells were incubated in the dark at 25°C for 30 minutes with 0.1 ml of a solution containing […] DiSBAC2(3). A t the end of the incubation period 1 mM of each thioglucoside was added and excited by 390 nm. Fluorescence emission was recorded at 460 and 580 nm. After a 20 second baseline reading, 0.1 ml of PBS containing 10 µM of each compound was added, and the fluorescence was calculated as the ratio F/F0 = [(A460/A580)/(I460/I580)] where A and I represent the reading after or before addition of each thioglucoside, respectively. For I, the readings form 2-5 seconds were averaged; and for A, readings from 3 seconds after the signal that had reached a plateau level (usually within 2-5 seconds) were also averaged. FRET values were expressed as relative fluorescence units (RFU).
(§3) The activity of the sodium-dependent D-glucose cotransport system was studied by changes in membrane potential induced by each of the eight thioglucosides (see Table 1) (10 µm). FRET values were normalized using the fluorescence signal obtained from non-transfected CHO cells.

human SGLT1 [2] = molecular target: T2, human SGLT1 (Homo sapiens, UniProt P13866); experiment: as above; settings: for transport through hSGLT1 (FRET): result in words; for fluorescence signal ratios: hSGLT1 in CHO cells, 10 µm thioglucoside, normalized to non-transfected CHO cells, ratio higher than 1 = transported, n=16
T2 construct: expressed in transfected cells; host or cells: CHO (Chinese hamster ovary) cells, stably transfected
T2 sequence (P13866 1-664): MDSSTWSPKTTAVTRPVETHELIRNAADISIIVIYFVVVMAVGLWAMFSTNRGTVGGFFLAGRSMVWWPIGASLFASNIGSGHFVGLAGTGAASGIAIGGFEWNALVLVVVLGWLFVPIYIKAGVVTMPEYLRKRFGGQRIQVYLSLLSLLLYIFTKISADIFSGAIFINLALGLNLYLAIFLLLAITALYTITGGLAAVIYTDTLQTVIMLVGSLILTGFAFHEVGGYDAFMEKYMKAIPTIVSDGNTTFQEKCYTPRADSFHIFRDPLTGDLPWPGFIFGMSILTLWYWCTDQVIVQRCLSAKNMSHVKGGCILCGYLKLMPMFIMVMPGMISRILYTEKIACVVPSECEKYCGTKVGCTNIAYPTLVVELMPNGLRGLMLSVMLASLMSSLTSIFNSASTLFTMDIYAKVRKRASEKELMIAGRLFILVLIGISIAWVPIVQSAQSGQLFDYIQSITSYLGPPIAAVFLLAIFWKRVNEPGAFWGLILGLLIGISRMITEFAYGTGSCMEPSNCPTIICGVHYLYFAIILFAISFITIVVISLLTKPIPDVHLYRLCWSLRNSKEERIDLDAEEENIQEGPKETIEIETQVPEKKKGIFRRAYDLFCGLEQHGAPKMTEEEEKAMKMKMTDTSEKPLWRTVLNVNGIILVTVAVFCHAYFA
Experimental: as §1, §2, §3

human SGLT2 [3] = molecular target: T1, human SGLT2; experiment: Inhibition of sodium-dependent D-glucose transport, [14C]AMG-uptake; settings: hSGLT2; for Ki: apparent inhibitory constant, Dixon plot
Experimental: as §1
(§4) Sodium-dependent D-glucose transport was determined by means of α-methyl [^14C]D-glucopyranoside ([^14C]AMG, spec. Radioactivity 300 mCi/mmol) purchased from NEN (Bad Homburg, Germany). For the purpose of this study, Krebs-Ringer-Henseleit (KRH) solution containing 120 mM NaCl, 4.7 mM KCI, 1.2 mM MgCl2, 2.2 mM CaCl2, 10 mM Hepes (pH 7.4 with Tris) was used to assess sodium-dependent D-glucose transport. For sodium free conditions, KRH solution containing 120 mM N-methyl-glucamine (NMG) instead of NaCl (Na^+) was used to assess sodium-independent D-glucose transport. All chemicals were purchased from Sigma (Deisenhof, Germany).
(§5) Briefly, cells were rinsed three times with 200 µl KRH-Na^+ or KRH-NMG. Then, 100 µl per well of transport buffer containing KRH-NA^+ or KRH-NMG plus [^14C]AMG (0.1 µCi/µl) were added and incubated for 1 hour. […] Then, the cells were solubilized by adding 100 µl of ATPlite substrate solution (PerkinElmer, Boston, USA) and luminescence ATP detection was assessed using a MicroBeta Trilux (PerkinElmer). A standard curve was used to determine the amount of ATP as mg of protein. After 24 hours the microtiter plate was taken for scintillation counting of radioactive [^14C]AMG-uptake using a MicroBeta Trilux (PerkinElmer). Subsequently, the mean counts per minute (cpm) were calculated and converted to […] (pmol). The obtained radioactive counts were expressed as pmol/mg/hour. Sodium-dependent [14C]AMG-uptake was calculated by subtracting uptake under sodium-free conditions from the uptake obtained in the presence of sodium.
(§6) The inhibitory effect on SGLT transport was also analyzed by IC50 values. Dixon plot analysis was used for both estimation of the inhibition constant (Ki) and for identification of the mechanism of enzyme inhibition. Ki was determined by the point of intersection of two different substrate concentrations. Plots of the reciprocal of rate of metabolite formation (1/Rate) versus inhibitor concentration at each substrate concentration were prepared.

human SGLT1 [4] = molecular target: T2, human SGLT1; experiment: as above; settings: for inhibitory effect, hSGLT1 compared with hSGLT2: [14C]AMG-uptake, 10µM, n=16, p<0.001, result in words; for Ki: apparent inhibitory constant, Dixon plot
Experimental: as §1, §4, §5, §6

Row | SMILES | transport through hSGLT2 (FRET) (human SGLT2 [1]) | transport through hSGLT1 (FRET) (human SGLT1 [2]) | IC50 (human SGLT2 [3]) [µM] | Ki (human SGLT2 [3]) [µM] | inhibitory effect, hSGLT1 compared with hSGLT2 (human SGLT1 [4]) | Ki (human SGLT1 [4]; hSGLT1, read-out: Ki) [µM] | IC50 (human SGLT1 [4]; hSGLT1, read-out: IC50) [µM] | IC50 (human SGLT1 [4]) [µM] | Ki (human SGLT1 [4]; Ki, hSGLT1) [µM] | fluorescence ratios (human SGLT2 [1]) | fluorescence signal ratios (human SGLT1 [2]) | inhibition at 10 µM (human SGLT1 [4]; read-out: [14C]AMG-uptake, % inhibition) [%] | inhibition at 10 µM (human SGLT2 [3]; 10µM, n=16) [%]
1 | C/C(=C\CC/C(C)=C/CS[C@@H]1O[C@H](CO)[C@@H](O)[C@H](O)[C@H]1O)CO [Thioglucoside 1, 8-Hydroxygeranol-1'-thio-β-D-glucopyranoside] | not transported | not transported | 12 | 0.03 | stronger for hSGLT1 | 0.1 | 35 | – | – | – | – | – | –
2 | OCc1ccccc1S[C@@H]1O[C@H](CO)[C@@H](O)[C@H](O)[C@H]1O [Thioglucoside 2, 2-Hydroxymethyl-phenyl-1'-thio-β-D-glucopyranoside] | not transported | not transported | 9 | 0.01 | stronger for hSGLT1 | – | – | 41 | 383 | – | – | – | –
3 | OC[C@H]1O[C@@H](Sc2ccccc2)[C@H](O)[C@@H](O)[C@@H]1O [Thioglucoside 3, Phenyl-1'-thio-β-D-glucopyranoside] | significantly transported | significantly transported | 16 | 135 | stronger for hSGLT1 | – | – | 4 | 0.08 | 1.21 | 1.15 | – | –
4 | Cc1ccccc1S[C@@H]1O[C@H](CO)[C@@H](O)[C@H](O)[C@H]1O [Thioglucoside 4, o-Tolyl-1'-thio-β-D-glucopyranoside] | significantly transported | significantly transported | 18 | 132 | stronger for hSGLT1 | – | – | 30 | 0.28 | 1.63 | – | > 70 | –
5 | OCc1cccc(S[C@@H]2O[C@H](CO)[C@@H](O)[C@H](O)[C@H]2O)c1 [Thioglucoside 5, 3-Hydroxymethyl-phenyl-1'-thio-β-D-glucopyranoside] | – | – | 12 | 0.02 | – | – | – | 47 | 0.12 | – | 1.01 | – | –
6 | OCc1ccccc1S[C@@H]1O[C@H](CO)[C@H](O)[C@H](O)[C@H]1O [Thioglucoside 6, 2-Hydroxymethyl-phenyl-1'-thio-β-D-galactopyranoside] | – | – | 15 | 0.01 | – | – | – | 120 | 140 | 1.32 | – | – | –
7 | Cc1ccc(S[C@@H]2O[C@H](CO)[C@@H](O)[C@H](O)[C@H]2O)cc1 [Thioglucoside 7, p-Tolyl-1'-thio-β-D-glucopyranoside] | significantly transported | significantly transported | 32 | 175 | – | – | – | 52 | 23 | 4.22 | 2.64 | – | > 70
8 | Cc1cccc(S[C@@H]2O[C@H](CO)[C@@H](O)[C@H](O)[C@H]2O)c1 [Thioglucoside 8, m-Tolyl-1'-thio-β-D-glucopyranoside] | not transported | not transported | 11 | 0.02 | – | – | – | 40 | 0.17 | – | – | – | –
9 | O=C(CCc1ccc(O)cc1)c1c(O)cc(O)cc1O[C@@H]1O[C@H](CO)[C@@H](O)[C@H](O)[C@H]1O [phlorizin, reference compound] | not transported | – | – | – | – | – | – | – | – | – | – | – | –
